According to ChEMBL document CHEMBL3244392, “Synthesis and antiinflammatory activity of some 2-aryl-6-benzoxazoleacetic acid derivatives” (J Med Chem, 1977):

Assays:
Rattus norvegicus [1] = test: Antiinflammatory activity in rat assessed as inhibition of carrageenan-induced paw edema at 50 mg/kg, po administered as two doses 3 and 0.5 hr prior to challenge measured 2.5 hrs post challenge; format: functional
[2] = Toxicity in po dosed rat; format: organism-based; details: in vivo
Rattus norvegicus [3] = test: Antiinflammatory activity in rat assessed as inhibition of carrageenan-induced paw edema at 100 mg/kg, po administered as two doses 3 and 0.5 hr prior to challenge measured 2.5 hrs post challenge; format: functional
Rattus norvegicus [4] = test: Antiinflammatory activity in rat assessed as inhibition of carrageenan-induced paw edema at 25 mg/kg, po administered as two doses 3 and 0.5 hr prior to challenge measured 2.5 hrs post challenge; format: functional
Rattus norvegicus [5] = test: Antiinflammatory activity in adrenalectomized rat assessed as inhibition of carrageenan-induced paw edema administered orally 1 hr prior to challenge measured 2.5 hrs post challenge; format: functional; details: po
Rattus norvegicus [6] = test: Antiinflammatory activity in adrenalectomized rat assessed as inhibition of carrageenan-induced paw edema administered orally 1 hr prior to challenge measured 5 hrs post challenge; format: functional; details: po
Rattus norvegicus [7] = test: Antiinflammatory activity in adrenalectomized rat assessed as inhibition of carrageenan-induced paw edema at 100 mg/kg, po administered as two doses 3 and 0.5 hr prior to challenge measured 2.5 hrs post challenge; format: functional
Rattus norvegicus [8] = test: Antiinflammatory activity in adrenalectomized rat assessed as inhibition of carrageenan-induced paw edema at 25 mg/kg, po administered as two doses 3 and 0.5 hr prior to challenge measured 2.5 hrs post challenge; format: functional
Rattus norvegicus [9] = test: Antiinflammatory activity in adrenalectomized rat assessed as inhibition of carrageenan-induced paw edema at 50 mg/kg, po administered as two doses 3 and 0.5 hr prior to challenge measured 2.5 hrs post challenge; format: functional

| SMILES | inhibition in vivo at 50 mg/kg (Rattus norvegicus [1]) [%] | LD50 [2] [mg/kg] | other results |
| --- | --- | --- | --- |
| Cc1ccc(-c2nc3ccc(C(C)C(=O)O)cc3o2)cc1 (stereo not drawn) | 43 | 1200 |  |
| OCCc1ccc2nc(-c3ccccc3)oc2c1 |  | > 1600 | inhibition in vivo at 100 mg/kg (Rattus norvegicus [3]): 47% |
| CC(CN)c1ccc2nc(-c3ccccc3)oc2c1.O=C(O)CCC(=O)O (stereo not drawn) |  | 300 | inhibition in vivo at 25 mg/kg (Rattus norvegicus [4]): 0% |
| CC(C(=O)O)c1ccc2oc(-c3ccc(Cl)cc3)nc2c1 (stereo not drawn) [BENOXAPROFEN] | 78 | 800 | ED30 (Rattus norvegicus [5]): 13.4 mg/kg; ED30 (Rattus norvegicus [6]): 10.6 mg/kg |
| CCCCC1C(=O)N(c2ccccc2)N(c2ccccc2)C1=O [PHENYLBUTAZONE] | 39 |  | inhibition in vivo at 100 mg/kg (Rattus norvegicus [7]): 60%; ED30 (Rattus norvegicus [5]): 23.8 mg/kg; ED30 (Rattus norvegicus [6]): 52.6 mg/kg |
| O=C(O)Cc1ccc2nc(-c3ccccc3)oc2c1 |  | 1200 | inhibition in vivo at 100 mg/kg (Rattus norvegicus [7]): 50%; inhibition in vivo at 100 mg/kg (Rattus norvegicus [3]): 60% |
| Cl.NCCc1ccc2nc(-c3ccccc3)oc2c1 |  | 300 | inhibition in vivo at 25 mg/kg (Rattus norvegicus [4]): 59%; inhibition in vivo at 25 mg/kg (Rattus norvegicus [8]): 0% |
| C[C@]12CCC(=O)C=C1CC[C@@H]1[C@@H]2[C@@H](O)C[C@@]2(C)[C@H]1CC[C@]2(O)C(=O)CO [HYDROCORTISONE] | 42 |  |  |
| CC(C(=O)O)c1ccc2nc(-c3ccccc3Cl)oc2c1 (stereo not drawn) | 41 | 1200 | ED30 (Rattus norvegicus [5]): 1.98 mg/kg; ED30 (Rattus norvegicus [6]): 23 mg/kg; inhibition in vivo at 50 mg/kg (Rattus norvegicus [9]): 58% |
| CC(C(=O)O)c1ccc2nc(-c3ccc(F)cc3)oc2c1 (stereo not drawn) | 48 | 1200 |  |
| CC(CO)c1ccc2nc(-c3ccccc3)oc2c1 (stereo not drawn) |  | 800 | inhibition in vivo at 100 mg/kg (Rattus norvegicus [3]): 61% |
| CC(C(=O)O)c1ccc2nc(-c3ccccc3)oc2c1 (stereo not drawn) | 60 | 600 |  |
| CC(C(=O)O)c1ccc2nc(-c3ccc(Cl)cc3Cl)oc2c1 (stereo not drawn) |  | 300 | inhibition in vivo at 25 mg/kg (Rattus norvegicus [4]): 49%; inhibition in vivo at 25 mg/kg (Rattus norvegicus [8]): 56% |
| Cc1ccc2nc(-c3ccccc3)oc2c1 | 10 | < 1600 |  |
| CCOC(=O)Cc1ccc2nc(-c3ccccc3)oc2c1 |  | 1200 | inhibition in vivo at 100 mg/kg (Rattus norvegicus [3]): 61% |
| CC(C(=O)O)c1ccc2nc(-c3ccc(Cl)cc3)oc2c1 (stereo not drawn) | 28 | 1200 | ED30 (Rattus norvegicus [5]): 2.4 mg/kg; ED30 (Rattus norvegicus [6]): 11 mg/kg |
